Experimental data published in patent publication US8507509B2, “Saturated and insaturated bi- or tricyclic aryloxyacetamine derivatives and their use as fungicides” (Syngenta Crop Protection LLC, priority 2007, dated 2013).

What was measured:
Phytophthora infestans = assay: whole plant or invertebrate; type: in vivo; conditions: in Solanum lycopersicum, foliar, 96 h, read-out: control of fungal infection, Phytophthora infestans
Septoria tritici = Septoria tritici (leaf blotch), liquid culture growth inhibition in nutrient broth; type: cell-based; conditions: Zymoseptoria tritici; 200 ppm; PDB broth, 24 C; inhibition of growth determined photometrically after 72 hrs; read-out: control of fungal infection, Septoria tritici
Plasmopara viticola = Plasmopara viticola (downy mildew of grapevine), grapevine leaf disk assay, preventive; type: in vivo; conditions: foliar, 168 h, 200 ppm, grapevine leaf disks, assessed seven days after inoculation, read-out: control of fungal infection, Plasmopara viticola
[1] = test system: Erysiphe graminis f.sp. tritici; assay: Erysiphe graminis f.sp. tritici (wheat powdery mildew), wheat leaf segment assay, preventive; type: in vivo; conditions: Blumeria graminis, foliar, 96 h; 200 ppm; wheat leaf segments; assessed four days after inoculation; read-out: control of fungal infection, Etysiphe graminis f.sp. tritici
Pythium ultimum = Pythium ultimum (Damping off), liquid culture growth inhibition in potato dextrose broth; type: cell-based; conditions: Globisporangium ultimum; 20 ppm; potato dextrose broth, 24° C.; inhibition of growth determined photometrically after 48 hours; read-out: control of fungal infection, Pythium ultimum

CCON=CC(C)(C)NC(=O)C(CC)Oc1ccc2ncc(I)cc2c1 (stereo not drawn) [Compound No. 3, N-(2-Ethoxyimino-1,1-dimethyl-ethyl)-2-(3-iodo-quinolin-6-yloxy)-butyramide]
≥ 60%: pest or weed control at 200 ppm (Phytophthora infestans) | inhibition of growth at 200 ppm (Septoria tritici) | pest or weed control at 200 ppm (Plasmopara viticola) | pest or weed control at 200 ppm [1]

C=CCON=CC(C)(C)NC(=O)C(CC)Oc1ccc2ncc(I)cc2c1 (stereo not drawn) [Compound No. 4, N-(2-Allyloxyimino-1,1-dimethyl-ethyl)-2-(3-iodo-quinolin-6-yloxy)-butyramide]
≥ 60%: pest or weed control at 200 ppm (Phytophthora infestans) | inhibition of growth at 200 ppm (Septoria tritici) | pest or weed control at 200 ppm (Plasmopara viticola) | inhibition of growth at 20 ppm (Pythium ultimum) | pest or weed control at 200 ppm [1]

C=CCON=CC(C)(C)NC(=O)C(CC)Oc1cc(C)c2ncc(I)cc2c1 (stereo not drawn) [Compound No. 7, N-(2-allyloxyimino-1,1-dimethyl-ethyl)-2-(3-iodo-8-methyl-quinolin-6-yloxy)-butyramide]
≥ 60%: inhibition of growth at 200 ppm (Septoria tritici) | pest or weed control at 200 ppm [1]

CSC(Oc1ccc2ncc(Br)cc2c1)C(=O)NC(C)(C)C=NOc1ccccc1 (stereo not drawn) [Compound No. 8, 2-(3-Bromo-quinolin-6-yloxy)-N-(1,1-dimethyl-2-phenoxyimino-ethyl)-2-methylsulfanyl-acetamide]
≥ 60%: pest or weed control at 200 ppm (Phytophthora infestans) | inhibition of growth at 200 ppm (Septoria tritici) | pest or weed control at 200 ppm (Plasmopara viticola) | inhibition of growth at 20 ppm (Pythium ultimum)

CSC(Oc1ccc2ncc(Br)cc2c1)C(=O)NC(C)(C)C=NOC(C)(C)C (stereo not drawn) [Compound No. 12, 2-(3-Bromo-quinolin-6-yloxy)-N-(2-tert-butoxyimino-1,1-dimethyl-ethyl)-2-methylsulfanyl-acetamide]
≥ 60%: inhibition of growth at 200 ppm (Septoria tritici) | inhibition of growth at 20 ppm (Pythium ultimum)

CCCCON=CC(C)(C)NC(=O)C(Oc1ccc2ncc(Br)cc2c1)SC (stereo not drawn) [Compound No. 14, 2-(3-Bromo-quinolin-6-yloxy)-N-(2-butoxyimino-1,1-dimethyl-ethyl)-2-methylsulfanyl-acetamide]
≥ 60%: pest or weed control at 200 ppm (Phytophthora infestans) | pest or weed control at 200 ppm (Plasmopara viticola) | inhibition of growth at 20 ppm (Pythium ultimum)

CSC(Oc1ccc2ncc(Br)cc2c1)C(=O)NC(C)(C)C=NO (stereo not drawn) [Compound No. 19, 2-(3-Bromo-quinolin-6-yloxy)-N-(2-hydroxyimino-1,1-dimethyl-ethyl)-2-methylsulfanyl-acetamide]
≥ 60%: pest or weed control at 200 ppm (Phytophthora infestans) | inhibition of growth at 200 ppm (Septoria tritici) | pest or weed control at 200 ppm (Plasmopara viticola) | inhibition of growth at 20 ppm (Pythium ultimum) | pest or weed control at 200 ppm [1]

CON=CC(C)(C)NC(=O)C(Oc1cc(Cl)c2ncc(Br)cc2c1)SC (stereo not drawn) [Compound No. 35, 2-(3-Bromo-8-chloro-quinolin-6-yloxy)-N-(2-methoxyimino-1,1-dimethyl-ethyl)-2-methylsulfanyl-acetamide]
≥ 60%: inhibition of growth at 200 ppm (Septoria tritici) | inhibition of growth at 20 ppm (Pythium ultimum)

CCON=CC(C)(C)NC(=O)C(Oc1cc(Cl)c2ncc(Br)cc2c1)SC (stereo not drawn) [Compound No. 36, 2-(3-Bromo-8-chloro-quinolin-6-yloxy)-N-(2-ethoxyimino-1,1-dimethyl-ethyl)-2-methylsulfanyl-acetamide]
≥ 60%: inhibition of growth at 200 ppm (Septoria tritici) | pest or weed control at 200 ppm (Plasmopara viticola) | pest or weed control at 200 ppm [1]

CON=CC(C)(C)NC(=O)C(Oc1ccc2ncc(C#C[Si](C)(C)C)cc2c1)SC (stereo not drawn) [Compound No. 37, N-(2-methoxyimino-1,1-dimethyl-ethyl)-2-methylsulfanyl-2-(3-trimethylsilanylethynyl-quinolin-6-yloxy)-acetamide]
≥ 60%: pest or weed control at 200 ppm (Phytophthora infestans) | inhibition of growth at 200 ppm (Septoria tritici) | pest or weed control at 200 ppm (Plasmopara viticola) | pest or weed control at 200 ppm [1]

CSC(Oc1cc(C)c2ncc(I)cc2c1)C(=O)NC(C)(C)CC=NO (stereo not drawn) [Compound No. 41, N-(3-Hydroxyimino-1,1-dimethyl-propyl)-2-(3-iodo-8-methyl-quinolin-6-yloxy)-2-methylsulfanylacetamide]
≥ 60%: pest or weed control at 200 ppm (Phytophthora infestans) | inhibition of growth at 200 ppm (Septoria tritici) | pest or weed control at 200 ppm (Plasmopara viticola) | inhibition of growth at 20 ppm (Pythium ultimum) | pest or weed control at 200 ppm [1]

CON=CC(C)(C)NC(=O)C(Oc1cc(C)c2ncc(I)cc2c1)SC (stereo not drawn) [Compound No. 44, 2-(3-Iodo-8-methyl-quinolin-6-yloxy)-N-(2-methoxyimino-1,1-dimethyl-ethyl)-2-methylsulfanyl-acetamide]
≥ 60%: inhibition of growth at 200 ppm (Septoria tritici) | pest or weed control at 200 ppm (Plasmopara viticola) | inhibition of growth at 20 ppm (Pythium ultimum) | pest or weed control at 200 ppm [1]

CCON=CC(C)(C)NC(=O)C(Oc1ccc2ncc(I)cc2c1)SC (stereo not drawn) [Compound No. 51, N-(2-Ethoxyimino-1,1-dimethyl-ethyl)-2-(3-iodo-quinolin-6-yloxy)-2-methylsulfanyl-acetamide]
≥ 60%: inhibition of growth at 200 ppm (Septoria tritici) | pest or weed control at 200 ppm (Plasmopara viticola) | inhibition of growth at 20 ppm (Pythium ultimum) | pest or weed control at 200 ppm [1]

CON=CC(C)(C)NC(=O)C(OC)Oc1ccc2ncc(Br)cc2c1 (stereo not drawn) [Compound No. 70, 2-(3-Bromo-quinolin-6-yloxy)-2-methoxy-N-(2-methoxyimino-1,1-dimethyl-ethyl)-acetamide]
≥ 60%: pest or weed control at 200 ppm (Phytophthora infestans) | inhibition of growth at 200 ppm (Septoria tritici) | pest or weed control at 200 ppm (Plasmopara viticola) | inhibition of growth at 20 ppm (Pythium ultimum) | pest or weed control at 200 ppm [1]

CON=CC(C)(C)NC(=O)C(Cc1cc(C)c2ccsc2c1)SC (stereo not drawn) [Compound No. 82, N-(2-Methoxyimino-1,1-dimethyl-ethyl)-3-(4-methyl-benzo[b]thiophen-6-yl)-2-methylsulfanyl-propionamide]
≥ 60%: inhibition of growth at 200 ppm (Septoria tritici) | pest or weed control at 200 ppm (Plasmopara viticola) | inhibition of growth at 20 ppm (Pythium ultimum)

CON=CCC(C)(C)NC(=O)C(Oc1ccc2ncc(I)cc2c1)SC (stereo not drawn) [Compound No. 92, 2-(3-iodo-quinolin-6-yloxy)-N-(3-methoxyimino-1,1-dimethyl-propyl)-2-methylsulfanyl-acetamide]
≥ 60%: inhibition of growth at 20 ppm (Pythium ultimum)

CON=C(C)CC(C)(C)NC(=O)C(Oc1ccc2ncc(Br)cc2c1)SC (stereo not drawn) [Compound No. 104, 2-(3-Bromo-quinolin-6-yloxy)-N-(3-methoxyimino-1,1-dimethyl-butyl)-2-methylsulfanyl-acetamide]
≥ 60%: pest or weed control at 200 ppm (Phytophthora infestans) | pest or weed control at 200 ppm (Plasmopara viticola) | pest or weed control at 200 ppm [1]

CSC(Oc1ccc2ncc(Br)cc2c1)C(=O)NC(C)(C)C=NOCc1ccccc1 (stereo not drawn) [Compound No. 109, N-(2-Benzyloxyimino-1,1-dimethyl-ethyl)-2-(3-bromo-quinolin-6-yloxy)-2-methylsulfanyl-acetamide]
≥ 60%: pest or weed control at 200 ppm (Phytophthora infestans) | inhibition of growth at 200 ppm (Septoria tritici) | pest or weed control at 200 ppm (Plasmopara viticola)

C=CCON=C(Cc1ccsc1)C(C)(C)NC(=O)C(Oc1ccc2ncc(Br)cc2c1)SC (stereo not drawn) [Compound No. 126, N-{2-[(E or Z)-Allyloxyimino]-1,1-dimethyl-3-thiophen-3-yl-propyl}-2-(3-bromo-quinolin-6-yloxy)-2-methylsulfanyl-acetamide]
≥ 60%: inhibition of growth at 200 ppm (Septoria tritici) | pest or weed control at 200 ppm (Plasmopara viticola)

CON=C(Cc1ccccn1)C(C)(C)NC(=O)C(Oc1ccc2ncc(Br)cc2c1)SC (stereo not drawn) [Compound No. 127, 2-(3-Bromo-quinolin-6-yloxy)-N-{2-[(E or Z)-methoxyimino]-1,1-dimethyl-3-pyridin-2-yl-propyl}-2-methylsulfanyl-acetamide]
≥ 60%: inhibition of growth at 200 ppm (Septoria tritici) | pest or weed control at 200 ppm (Plasmopara viticola) | inhibition of growth at 20 ppm (Pythium ultimum)

CCON=C(Cc1ccccn1)C(C)(C)NC(=O)C(Oc1ccc2ncc(Br)cc2c1)SC (stereo not drawn) [Compound No. 128, 2-(3-Bromo-quinolin-6-yloxy)-N-{2-[(E or Z)-ethoxyimino]-1,1-dimethyl-3-pyridin-2-yl-propyl}-2-methylsulfanyl-acetamide]
≥ 60%: inhibition of growth at 200 ppm (Septoria tritici) | inhibition of growth at 20 ppm (Pythium ultimum)

CCc1cc(OC(SC)C(=O)NC(C)(C)C=NOC)cc2cc(Br)cnc12 (stereo not drawn) [Compound No. 133, 2-(3-Bromo-8-ethyl-quinolin-6-yloxy)-N-(2-methoxyimino-1,1-dimethyl-ethyl)-2-methylsulfanyl-acetamide]
≥ 60%: inhibition of growth at 200 ppm (Septoria tritici) | pest or weed control at 200 ppm (Plasmopara viticola)

C#Cc1cnc2c(C)cc(OC(CC)C(=O)NC(C)(C)C=NOC(C)(C)C)cc2c1 (stereo not drawn) [Compound No. 137, N-(2-tert-Butoxyimino-1,1-dimethyl-ethyl)-2-(3-ethynyl-8-methyl-quinolin-6-yloxy)-butyramide]
≥ 60%: inhibition of growth at 200 ppm (Septoria tritici) | pest or weed control at 200 ppm [1]

CCC(Oc1ccc2ncc(Br)cc2c1)C(=O)NC(C)(C)C=NO (stereo not drawn) [Compound No. 150, 2-(3-Bromo-quinolin-6-yloxy)-N-(2-hydroxyimino-1,1-dimethyl-ethyl)-butyramide]
≥ 60%: pest or weed control at 200 ppm (Phytophthora infestans) | inhibition of growth at 20 ppm (Pythium ultimum)
